What was measured:
Assay in all cases: relative viability (nuclei count vs DMSO), 5 days (fraction); higher = more cells survive
BEN = test system: BEN
Outline: (§1)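 After 5 days of treatment, lung cancer cells in 1536-well plates were fixed and stained in a single step (final 0.05% Triton X-100, 1% formaldehyde, 1 ug/ml Hoechst) and their nuclei counted on 4× images. Treatment had been applied by pin tool the day after seeding as one drug alone or as a fixed anchor-drug dose with five library-drug doses (not always all listed) in √10 steps. Relative viability is the nuclei count of treated wells divided by that of vehicle wells, and values are medians of duplicate plates.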

EMC-BAC-2 = test system: EMC-BAC-2
Outline: as §1

H3255 = test system: H3255
Outline: as §1

HOP-62 = test system: HOP-62
Outline: as §1

LCLC-97TM1 = test system: LCLC-97TM1
Outline: as §1

LXF-289 = test system: LXF-289
Outline: as §1

NCI-H1563 = test system: NCI-H1563
Outline: as §1

NCI-H1650 = test system: NCI-H1650
Outline: as §1

NCI-H1915 = test system: NCI-H1915
Outline: as §1

NCI-H1993 = test system: NCI-H1993
Outline: as §1

NCI-H2009 = test system: NCI-H2009
Outline: as §1

NCI-H2023 = test system: NCI-H2023
Outline: as §1

NCI-H2085 = test system: NCI-H2085
Outline: as §1

NCI-H2126 = test system: NCI-H2126
Outline: as §1

NCI-H2347 = test system: NCI-H2347
Outline: as §1

NCI-H322M = test system: NCI-H322M
Outline: as §1

NCI-H647 = test system: NCI-H647
Outline: as §1

NCI-H661 = test system: NCI-H661
Outline: as §1

NCI-H727 = test system: NCI-H727
Outline: as §1

PC-14 = test system: PC-14
Outline: as §1

SK-LU-1 = test system: SK-LU-1
Outline: as §1

SW 1573 = test system: SW 1573
Outline: as §1

With `COc1cc(N2CCC(C(N)=O)CC2)ccc1Nc1nc(N)c(Cl)c(Nc2ccccc2S(=O)(=O)C(C)C)n1` [HG-5-88-01] + CC(C)C[C@H](NC(=O)[C@H](Cc1ccccc1)NC(=O)c1cnccn1)B(O)O [Bortezomib] (partner 0.002 µM) the relative viability (BEN; first compound 0.04 µM) was 0.652, the relative viability (BEN; first compound 0.1265 µM) was 0.752 and the relative viability (BEN; first compound 0.4 µM) was 0.714. The relative viability (BEN; first compound 1.265 µM) was 0.841, the relative viability (BEN; first compound 4 µM) was 0.791 and the relative viability (EMC-BAC-2; first compound 0.04 µM) was 1.07. It also gave a relative viability (EMC-BAC-2; first compound 0.1265 µM) of 1.06, a relative viability (EMC-BAC-2; first compound 0.4 µM) of 1.04 and a relative viability (EMC-BAC-2; first compound 1.265 µM) of 1.09. It also gave a relative viability (EMC-BAC-2; first compound 4 µM) of 0.931, a relative viability (H3255; first compound 0.04 µM) of 0.748 and a relative viability (H3255; first compound 0.1265 µM) of 0.745. For the same compound, the relative viability (H3255; first compound 0.4 µM) was 0.75, the relative viability (H3255; first compound 4 µM) was 0.388 and the relative viability (HOP-62; first compound 0.04 µM) was 0.684. It also gave a relative viability (HOP-62; first compound 0.1265 µM) of 0.732, a relative viability (HOP-62; first compound 0.4 µM) of 0.77 and a relative viability (HOP-62; first compound 1.265 µM) of 0.76. It also gave a relative viability (HOP-62; first compound 4 µM) of 0.732, a relative viability (LCLC-97TM1; first compound 0.04 µM) of 1.05 and a relative viability (LCLC-97TM1; first compound 0.1265 µM) of 0.313. For the same compound, the relative viability (LCLC-97TM1; first compound 0.4 µM) was 0.308, the relative viability (LCLC-97TM1; first compound 1.265 µM) was 0.546 and the relative viability (LCLC-97TM1; first compound 4 µM) was 0.213. It also gave a relative viability (LXF-289; first compound 0.04 µM) of 1.04, a relative viability (LXF-289; first compound 0.1265 µM) of 0.994 and a relative viability (LXF-289; first compound 0.4 µM) of 0.909. The relative viability (LXF-289; first compound 1.265 µM) was 1.05, the relative viability (LXF-289; first compound 4 µM) was 0.981 and the relative viability (NCI-H1563; first compound 0.04 µM) was 0.827. It also gave a relative viability (NCI-H1563; first compound 0.1265 µM) of 0.92, a relative viability (NCI-H1563; first compound 0.4 µM) of 0.925 and a relative viability (NCI-H1563; first compound 1.265 µM) of 0.765. The relative viability (NCI-H1563; first compound 4 µM) was 0.855, the relative viability (NCI-H1650; first compound 0.04 µM) was 0.207 and the relative viability (NCI-H1650; first compound 0.1265 µM) was 0.219. For the same compound, the relative viability (NCI-H1650; first compound 0.4 µM) was 0.195, the relative viability (NCI-H1650; first compound 1.265 µM) was 0.185 and the relative viability (NCI-H1650; first compound 4 µM) was 0.189. The relative viability (NCI-H1915; first compound 0.04 µM) was 0.977, the relative viability (NCI-H1915; first compound 0.1265 µM) was 0.941 and the relative viability (NCI-H1915; first compound 0.4 µM) was 0.941. It also gave a relative viability (NCI-H1915; first compound 1.265 µM) of 0.974, a relative viability (NCI-H1915; first compound 4 µM) of 0.621 and a relative viability (NCI-H1993; first compound 0.04 µM) of 1.08. It also gave a relative viability (NCI-H1993; first compound 0.1265 µM) of 1.08, a relative viability (NCI-H1993; first compound 0.4 µM) of 0.971 and a relative viability (NCI-H1993; first compound 1.265 µM) of 0.819. The relative viability (NCI-H1993; first compound 4 µM) was 1.02, the relative viability (NCI-H2009; first compound 0.04 µM) was 0.99 and the relative viability (NCI-H2009; first compound 0.1265 µM) was 1.19. The relative viability (NCI-H2009; first compound 0.4 µM) was 0.845, the relative viability (NCI-H2009; first compound 1.265 µM) was 0.986 and the relative viability (NCI-H2009; first compound 4 µM) was 0.765. The relative viability (NCI-H2023; first compound 0.04 µM) was 1.08, the relative viability (NCI-H2023; first compound 0.1265 µM) was 1.34 and the relative viability (NCI-H2023; first compound 0.4 µM) was 0.753. The relative viability (NCI-H2023; first compound 1.265 µM) was 0.542, the relative viability (NCI-H2023; first compound 4 µM) was 0.454 and the relative viability (NCI-H2085; first compound 0.04 µM) was 0.986. It also gave a relative viability (NCI-H2085; first compound 0.1265 µM) of 1.13, a relative viability (NCI-H2085; first compound 0.4 µM) of 0.922 and a relative viability (NCI-H2085; first compound 1.265 µM) of 1.01. For the same compound, the relative viability (NCI-H2085; first compound 4 µM) was 0.917, the relative viability (NCI-H2126; first compound 0.04 µM) was 1.16 and the relative viability (NCI-H2126; first compound 0.1265 µM) was 1.12. It also gave a relative viability (NCI-H2126; first compound 0.4 µM) of 1.13, a relative viability (NCI-H2126; first compound 1.265 µM) of 1.15 and a relative viability (NCI-H2126; first compound 4 µM) of 1.12. The relative viability (NCI-H2347; first compound 0.04 µM) was 0.954, the relative viability (NCI-H2347; first compound 0.1265 µM) was 0.873 and the relative viability (NCI-H2347; first compound 0.4 µM) was 1.01. The relative viability (NCI-H2347; first compound 1.265 µM) was 1.16, the relative viability (NCI-H2347; first compound 4 µM) was 0.897 and the relative viability (NCI-H322M; first compound 0.04 µM) was 1.22. The relative viability (NCI-H322M; first compound 0.1265 µM) was 1.04, the relative viability (NCI-H322M; first compound 0.4 µM) was 1.38 and the relative viability (NCI-H322M; first compound 1.265 µM) was 1.23. For the same compound, the relative viability (NCI-H322M; first compound 4 µM) was 1.08, the relative viability (NCI-H647; first compound 0.04 µM) was 1.02 and the relative viability (NCI-H647; first compound 0.1265 µM) was 0.826. The relative viability (NCI-H647; first compound 1.265 µM) was 1.07, the relative viability (NCI-H647; first compound 4 µM) was 0.967 and the relative viability (NCI-H661; first compound 0.04 µM) was 0.838. The relative viability (NCI-H661; first compound 0.1265 µM) was 0.878, the relative viability (NCI-H661; first compound 0.4 µM) was 0.726 and the relative viability (NCI-H661; first compound 4 µM) was 0.894. It also gave a relative viability (NCI-H727; first compound 0.04 µM) of 0.689, a relative viability (NCI-H727; first compound 0.1265 µM) of 0.924 and a relative viability (NCI-H727; first compound 0.4 µM) of 0.769. For the same compound, the relative viability (NCI-H727; first compound 1.265 µM) was 0.643, the relative viability (NCI-H727; first compound 4 µM) was 0.388 and the relative viability (PC-14; first compound 0.04 µM) was 0.837. It also gave a relative viability (PC-14; first compound 0.1265 µM) of 0.969, a relative viability (PC-14; first compound 0.4 µM) of 0.864 and a relative viability (PC-14; first compound 1.265 µM) of 0.883. For the same compound, the relative viability (PC-14; first compound 4 µM) was 0.316, the relative viability (SK-LU-1; first compound 0.04 µM) was 0.976 and the relative viability (SK-LU-1; first compound 0.1265 µM) was 1.2. The relative viability (SK-LU-1; first compound 0.4 µM) was 1.07, the relative viability (SK-LU-1; first compound 1.265 µM) was 0.973 and the relative viability (SK-LU-1; first compound 4 µM) was 0.336. For the same compound, the relative viability (SW 1573; first compound 0.04 µM) was 1.34, the relative viability (SW 1573; first compound 0.1265 µM) was 1.08 and the relative viability (SW 1573; first compound 0.4 µM) was 0.997. It also gave a relative viability (SW 1573; first compound 1.265 µM) of 0.978 and a relative viability (SW 1573; first compound 4 µM) of 0.821.
